Measured values: publication PMC4673935, “Synthesis, Antiplatelet Activity and Cytotoxicity Assessment of Indole-Based Hydrazone Derivatives” (Iranian Journal of Pharmaceutical Research : IJPR, 2015)
Read-outs that look alike come from different tables or passages of the source.

What was measured:
[1] = tested on: human platelet rich plasma (PRP), arachidonic acid-induced platelet aggregation; assay: Arachidonic acid-induced platelet aggregation in human platelet rich plasma (Born turbidimetric method); assay type: cell-based; settings: inducer arachidonic acid 1.25 mg/mL; for IC50: Platelet, read-out: Antiplatelet aggregation activity, IC50, AA
Experimental: (§1) The in vitro antiplatelet activity of the derivatives was evaluated using human platelet rich plasma (PRP)on an APACT 4004 aggregometerby Born’s reported turbidimetric method([16]). ADP (5 µM), arachidonic acid (1.25 mg/mL) and collagen (5 µM) were used as inducers of platelet aggregation. IC50 was defined as the concentration of the test compound that inhibits the platelet aggregation by 50%. The detailed procedure has been described in our previous works([11],[12],[17]).

[2] = tested on: human platelet rich plasma (PRP), ADP-induced platelet aggregation; assay: ADP-induced platelet aggregation in human platelet rich plasma (Born turbidimetric method); assay type: cell-based; settings: inducer ADP 5 µM, read-out: Antiplatelet aggregation activity, IC50, ADP
Experimental: as §1

[3] = tested on: human platelet rich plasma (PRP), collagen-induced platelet aggregation; assay: Collagen-induced platelet aggregation in human platelet rich plasma (Born turbidimetric method); assay type: cell-based; settings: inducer collagen (5 µM); for IC50: Platelet, read-out: Antiplatelet aggregation activity, IC50, Collagen
Experimental: as §1

[4] = Cytotoxicity assay, MTT method; assay type: cell-based; settings: mouse, fibroblast L929 cell line, 24 h of exposure
Experimental: (§2) The synthesized derivatives were assayed for their toxicity on Fibroblast L929 cell line by MTT [[…]] method. The compounds were initially screened at 100 µM concentration and IC50 was calculated for those showing more than 50% toxicity. The detailed procedure has been described in our previous work([18]).

[5] = tested on: Fibroblast L929 cell line; assay: Cytotoxicity assay, MTT method; assay type: cell-based; settings: 24 h of exposure
Experimental: as §2

[6] = tested on: human platelet rich plasma (PRP), arachidonic acid-induced platelet aggregation; parameters: method as in PMID 23154304; settings: inducer arachidonic acid, obtained in previous study, read-out: Antiplatelet aggregation activity, IC50, AA; cited from earlier work
[7] = tested on: human platelet rich plasma (PRP), ADP-induced platelet aggregation; parameters: method as in PMID 23154304; settings: inducer ADP, obtained in previous study, read-out: Antiplatelet aggregation activity, IC50, ADP; cited from earlier work

| SMILES | IC50 [1] [µM] | IC50 [2] [µM] | IC50 [3] [µM] | IC50 at 24 h ([4]; L929 fibroblast cells) [µM] | melting point | Antiplatelet aggregation activity, IC50, AA [1] | Cytotoxicity, IC50 [5] | IC50 [6] [µM] | IC50 [7] [µM] | Antiplatelet aggregation activity, IC50, Collagen [3] | IC50 at 24 h [4] [µM] |
| --- | --- | --- | --- | --- | --- | --- | --- | --- | --- | --- | --- |
| O=C(NN=Cc1c[nH]c2ccccc12)c1ccc(Cl)cc1 [2c, Indole-3-carboxaldehyde 4-chlorobenzoylhydrazone] | > 100 | > 100 | > 100 | > 100 | – | – | – | – | – | – | – |
| COc1ccc(NN=Cc2c[nH]c3ccccc23)cc1 [1i, Indole-3-carboxaldehyde 4-methoxyphenylhydrazone] | 7.13 | > 100 | > 100 | 74.5 | – | – | – | – | – | – | – |
| O=C(NN=Cc1c[nH]c2ccc(Cl)cc12)c1ccncc1 [3g, 5-Chloroindole-3-carboxaldehyde isonicotinoylhydrazone] | > 100 | > 100 | > 100 | > 100 | > 270 °C | – | – | – | – | – | – |
| Cc1cccc(C(=O)NN=Cc2c[nH]c3ccc(Cl)cc23)c1 [3e, 5-Chloroindole-3-carboxaldehyde 3-methylbenzoylhydrazone] | > 100 | > 100 | > 100 | 49.6 | 226 to 228 °C | – | – | – | – | – | – |
| Clc1ccccc1NN=Cc1c[nH]c2ccccc12 [1c, Indole-3-carboxaldehyde 2-chlorophenylhydrazone] | 14.6 | > 100 | 85.6 | 45.9 | – | still acceptable | – | – | – | – | – |
| O=C(N/N=C/c1c[nH]c2ccc(Cl)cc12)c1ccccc1 [3a] | > 100 | > 100 | > 100 | > 100 | – | – | – | – | – | – | – |
| O=C(NN=Cc1c[nH]c2ccccc12)c1ccccc1 [2a, Indole-3-carboxaldehyde benzoylhydrazone] | > 100 | > 100 | > 100 | > 100 | 238 to 241 °C | – | – | – | – | – | – |
| O=C(NN=Cc1c[nH]c2ccccc12)c1ccc([N+](=O)[O-])cc1 [2d, Indole-3-carboxaldehyde 4-nitrobenzoylhydrazone] | > 100 | > 100 | > 100 | > 100 | 250 to 253 °C | – | – | – | – | – | – |
| O=C(NN=Cc1c[nH]c2ccccc12)c1cccc(Cl)c1 [2b, Indole-3-carboxaldehyde 3-chlorobenzoylhydrazone] | > 100 | > 100 | > 100 | > 100 | 215 to 218 °C | – | – | – | – | – | – |
| Cc1cccc(C(=O)NN=Cc2c[nH]c3ccccc23)c1 [2e, Indole-3-carboxaldehyde 3-methylbenzoylhydrazone] | > 100 | > 100 | > 100 | > 100 | 212 to 214 °C | – | – | – | – | – | – |
| Fc1ccc(N/N=C/c2c[nH]c3ccccc23)cc1 [1b] | 28.8 | > 100 | > 100 | > 100 | – | – | not toxic to fibroblast cells | – | – | – | – |
| O=C(NN=Cc1c[nH]c2ccc(Cl)cc12)c1ccc([N+](=O)[O-])cc1 [3d, 5-Chloroindole-3-carboxaldehyde 4-nitrobenzoylhydrazone] | > 100 | > 100 | > 100 | > 100 | > 270 °C | – | – | – | – | – | – |
| Cc1ccc(NN=Cc2c[nH]c3ccccc23)cc1 [1h, Indole-3-carboxaldehyde 4-methylphenylhydrazone] | 57.2 | > 100 | > 100 | > 100 | – | – | not toxic to fibroblast cells | – | – | – | – |
| Cc1ccc(C(=O)NN=Cc2c[nH]c3ccccc23)cc1 [2f, Indole-3-carboxaldehyde 4-methylbenzoylhydrazone] | > 100 | > 100 | > 100 | > 100 | > 270 °C | – | – | – | – | – | – |
| COc1ccc2c(c1)c(CC(=O)O)c(C)n2C(=O)c1ccc(Cl)cc1 [Indometacin, reference compound] | 3 | > 100 | 1.5 | – | – | – | – | – | – | – | – |
| C(=NNc1ccccc1)c1c[nH]c2ccccc12 [1a, indole-3-carboxaldehyde phenylhydrazone] | – | – | 38.8 | > 100 | – | – | not toxic to fibroblast cells | 10 | > 100 | moderate activity | – |
| CC(=O)Oc1ccccc1C(=O)O [Aspirin, reference compound] | 30.3 | > 100 | 9.7 | – | – | – | – | – | – | – | – |
| O=C(N/N=C/c1c[nH]c2ccccc12)c1ccncc1 [2g] | – | – | > 100 | > 100 | – | – | – | > 100 | > 100 | – | – |
| O=C(NN=Cc1c[nH]c2ccc(Cl)cc12)c1cccc(Cl)c1 [3b, 5-Chloroindole-3-carboxaldehyde 3-chlorobenzoylhydrazone] | > 100 | > 100 | > 100 | 55.5 | 230 to 233 °C | – | – | – | – | – | – |
| Clc1cccc(NN=Cc2c[nH]c3ccccc23)c1 [1d, Indole-3-carboxaldehyde 3-chlorophenylhydrazone] | 28.1 | > 100 | > 100 | – | 211 to 214 °C | – | – | – | – | – | 33.9 |
| Brc1ccc(N/N=C/c2c[nH]c3ccccc23)cc1 [1f] | 21.2 | 100 | > 100 | 59.8 | – | still acceptable | – | – | – | – | – |
| Cc1ccccc1NN=Cc1c[nH]c2ccccc12 [1g, Indole-3-carboxaldehyde 2-methylphenylhydrazone] | 56.8 | > 100 | 75.2 | 85.1 | 176 to 178 °C | – | – | – | – | moderate activity | – |
| Clc1ccc(N/N=C/c2c[nH]c3ccccc23)cc1 [1e] | 22.5 | > 100 | 62.5 | – | – | – | – | – | – | moderate activity | 66.7 |
| Cc1ccc(C(=O)NN=Cc2c[nH]c3ccc(Cl)cc23)cc1 [3f, 5-Chloroindole-3-carboxaldehyde 4-methylbenzoylhydrazone] | > 100 | > 100 | > 100 | 62.7 | 244 °C (dec.) | – | – | – | – | – | – |
| O=C(N/N=C/c1c[nH]c2ccc(Cl)cc12)c1ccc(Cl)cc1 [3c] | > 100 | > 100 | > 100 | 71.3 | – | – | – | – | – | – | – |
